Converted amounts (≈) assume the structure as drawn.
What was measured:
Assay type in all cases: physicochemical
[1] = Solubility test in ultra-pure water; settings: for Solubility property (in words): solubility and kinetic solubility; for Solubility: upper limit 300 μg/mL
Excerpt: (§1) Four crystal samples produced, namely the eutectic sample and the crystal form A sample of Example 1, the crystal form B sample of Example 2, and the crystal form D sample of Example 3, were subjected to solubility tests and a kinetic solubility determination tests in ultra-pure water, and the solubility results are shown in Tables 1 and 2.

[2] = Kinetic solubility determination in ultra-pure water; settings: upper limit 1000 μg/mL
Excerpt: as §1

[3] = Hygroscopicity test (dynamic vapor sorption); settings: 25° C.; for Hygroscopicity / Hygroscopicity comparison (in words): 0-80% RH; for Weight change in the range of 0% RH to 80% RH: dynamic vapor sorption
Method: Four crystal samples produced, namely the eutectic sample and the crystal form A sample of Example 1, the crystal form B sample of Example 2, and the crystal form D sample of Example 3, were subjected to hygroscopicity tests at 25° C. under a changing relative humidity of 0-80% RH.

[4] = Stability influence factor tests (high temperature, high humidity, illumination); settings: for Stability during the 10 days of examination (in words): high temperature, high humidity, illumination
Method: Four crystal samples produced, namely the eutectic sample and the crystal form A sample of Example 1, the crystal form B sample of Example 2, and the crystal form D sample of Example 3, were each subjected the stability influence factor tests under high temperature (60° C., in the dark), high humidity (relative humidity of 90%[…], in the dark), and illumination (4500 lx±500 lx), and sampling was carried out to on day 0, day 5 day, and day 10 for […] determination, and the results are shown in Table 4 below.

[5] = 10 d, high humidity (relative humidity of 90%±50, in the dark)
[6] = 10 d, high temperature (60° C., in the dark)
[7] = 10 d, illumination (4500 lx±500 lx)
[8] = 5 d, high humidity (relative humidity of 90%±50, in the dark)
[9] = 5 d, high temperature (60° C., in the dark)
[10] = 5 d, illumination (4500 lx±500 lx)

Compound | Solubility property (in words) [1] | Solubility [1] [µg/mL] | Kinetic solubility [2] [µg/mL] | Hygroscopicity [3] | Weight change in the range of 0% RH to 80% RH [3] | Stability results (content) ([4]; 0 h) [%] | Stability results (content) [4, 5] [%] | Stability results (content) [4, 6] [%] | Stability results (content) [4, 7] [%] | Stability during the 10 days of examination (in words) [4] | Hygroscopicity comparison (in words) [3] | Stability results (content) [4, 8] [%] | Stability results (content) [4, 9] [%] | Stability results (content) [4, 10] [%]
N—((R)-1-(((R)-1-(1,3,6,2-dioxazaborolan-2-yl)-3-methylbutyl)amino)-3-(methylthio)-1-oxoprop-2-yl)-2,5-dichlorobenzamide [White eutectic solid of Example 1] | excellent solubility property | 310.12 | 948.16 | Deliquescent | 2.1% | 98.10 | 93.18 | 97.49 | 98.06 | unstable | – | – | – | –
CSC[C@H](NC(=O)c1cc(Cl)ccc1Cl)C(=O)N[C@@H](CC(C)C)B1OCCNCCO1 [Crystal form B of Example 2, N—((R)-1-(((R)-1-(1,3,6,2-dioxazaborolan-2-yl)-3-methylbutyl)amino)-3-(methylthio)-1-oxoprop-2-yl)-2,5-dichlorobenzamide] | excellent solubility property | 302.80 (≈ 618 µM) | 1078.59 | Nonhygroscopic | Less than 0.2% | 99.16 | 99.08 | 99.25 | 99.11 | no significant content change | weaker hygroscopicity compared with the crystal form D | 98.41 | 98.92 | 99.22
CSC[C@H](NC(=O)c1cc(Cl)ccc1Cl)C(=O)N[C@@H](CC(C)C)B1OCCNCCO1 [Crystal form D of Example 3, N—((R)-1-(((R)-1-(1,3,6,2-dioxazaborolan-2-yl)-3-methylbutyl)amino)-3-(methylthio)-1-oxoprop-2-yl)-2,5-dichlorobenzamide] | excellent solubility property | 304.21 (≈ 621 µM) | 902.91 | Deliquescent | 2.4% | 98.05 | 98.39 | 98.52 | 98.49 | no significant content change | – | 97.88 | 97.68 | 98.07
CSC[C@H](NC(=O)c1cc(Cl)ccc1Cl)C(=O)N[C@@H](CC(C)C)B1OCCNCCO1 [Crystal form A of Example 1, N—((R)-1-(((R)-1-(1,3,6,2-dioxazaborolan-2-yl)-3-methylbutyl)amino)-3-(methylthio)-1-oxoprop-2-yl)-2,5-dichlorobenzamide] | excellent solubility property | 318.09 (≈ 649 µM) | 958.47 | – | 1.4% | 99.01 | 99.23 | 99.22 | 98.90 | no significant content change | weaker hygroscopicity compared with the crystal form D | 99.24 | 98.97 | 98.61

Reference: US20260159534A1, “NOVEL CRYSTAL FORMS OF PEPTIDE BORIC ACID COMPOUND AND PREPARATION METHODS THEREFOR” (JIANGSU CHUANGTE PHARMACEUTICAL TECHNOLOGY CO., LTD., priority 2021, published 2026)
